Where a SMILES comes first, the peptide text is derived from it. Where no end group is shown, it is not given here. [ ]: non-standard residue; d: D form.
Tests used:
human neutrophils = experiment: Superoxide generation in human neutrophils (cytochrome c reduction); type: cell-based; conditions: for superoxide generating activity: 100 nM of peptides; for O^2− (nmol/10^6 cells), superoxide generation: cytochrome c reduction
Procedure: Peripheral blood leukocyte concentrates were donated by the Ulsan Red Cross Blood Center (Ulsan, Korea). Human neutrophils were isolated according to the standard procedures of dextran sedimentation, hypotonic lysis of erythrocytes, and a lymphocyte separation medium gradient as described above (9). The isolated human neutrophils were then used promptly.
The activity of the peptides, WKYMVm, peptides of SEQ ID NOs: 1 to 24, and wkymvm on superoxide generation in human neutrophils was measured. Superoxide anion generation was quantified by measuring reduction of cytochrome c using a microtiter 96-well plate ELISA reader (Bio-Tekinstruments, EL312e, Winooski, Vt.) as described (14). The human neutrophils (1×10^6 cells/100 μl of RPMI 1640 medium per well of a 96-well plate) were preincubated with 50 μM cytochrome c at 37° C. for 1 min and then incubated with the indicated concentrations of peptides. The superoxide generation was measured as a change in light absorption at 550 nm over 5 minutes at 1 min intervals. From at least four independent experiments, peptides with active amino acids at each position were chosen.

FPR = target: T1, FPR (Homo sapiens, UniProt P21462); experiment: [Ca2+]i increase in FPR-expressing RBL-2H3 cells (fura-2); type: cell-based; conditions: for EC50 / EC50 (nM), intracellular calcium increase: fura-2 loaded; for EC50: read-out: EC50 (nM), intracellular calcium increase
T1 construct: expressed in transfected cells; host or cells: RBL-2H3 (rat basophilic leukemia) cells, G418-selected
T1 sequence (P21462 1-350): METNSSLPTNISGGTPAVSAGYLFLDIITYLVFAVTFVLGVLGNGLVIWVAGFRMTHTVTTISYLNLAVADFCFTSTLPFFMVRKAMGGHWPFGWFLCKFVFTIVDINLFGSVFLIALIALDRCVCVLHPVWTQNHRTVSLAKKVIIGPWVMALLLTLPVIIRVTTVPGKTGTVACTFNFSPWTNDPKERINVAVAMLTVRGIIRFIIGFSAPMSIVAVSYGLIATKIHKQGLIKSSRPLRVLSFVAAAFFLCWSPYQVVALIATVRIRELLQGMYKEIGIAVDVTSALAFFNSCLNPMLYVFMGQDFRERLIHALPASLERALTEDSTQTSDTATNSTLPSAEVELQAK
Procedure: FPR-expressing RBL-2H3 cells were stimulated with 10 μM of each peptide, and [Ca^2+]i was determined. The level of [Ca^2+]i was determined fluorometrically by Grynkiewicz's method using fura-2/AM (15). Briefly, prepared cells were incubated with 3 μM fura-2/AM at 37° C. for 50 min in a fresh serum-free RPMI 1640 medium under continuous stirring. 2×10^6 cells were aliquoted for each assay in Ca^2+-free Locke's solution (154 mM NaCl, 5.6 mM KCl, 1.2 mM MgCl2, 5 mM HEPES, pH 7.3, 10 mM glucose, and 0.2 mM EGTA). Fluorescence changes at the dual excitation wavelengths of 340 nm and 380 nm and the emission wavelength of 500 nm were measured, and the calibrated fluorescence ratio was translated into [Ca^2+]i. The peak level of the increased [Ca^2+]i was monitored.

| EC50 (FPR) | EC50 (nM), intracellular calcium increase (FPR) | Compound | superoxide generating activity (human neutrophils) | O^2− (nmol/10^6 cells), superoxide generation (human neutrophils; peptide 100 nM) | O^2− (nmol/10^6 cells), superoxide generation (human neutrophils; peptide 10 μM) | [Ca^2+]i increasing activity (FPR) |
| --- | --- | --- | --- | --- | --- | --- |
|  |  | CSCC[C@H](NC(=O)[C@H](Cc1ccc(O)cc1)NC(=O)[C@@H](N)CCCCN)C(=O)N[C@H](C(=O)N[C@H](CCSC)C(N)=O)C(C)C [KYMVm-NH2, Lys-Tyr-Met-Val-D-Met-NH2] | stimulated superoxide generation | 36.0 ± 3.56 nmol/10^6 cells | 49.2 ± 5.82 nmol/10^6 cells |  |
|  |  | CSCC[C@H](NC(=O)[C@H](Cc1ccc(O)cc1)NC(=O)[C@H](CC(=O)O)NC(=O)[C@@H](N)Cc1c[nH]c2ccccc12)C(=O)N[C@H](C(=O)N[C@H](CCSC)C(N)=O)C(C)C [WDYMVm-NH2, Trp-Asp-Tyr-Met-Val-D-Met-NH2] (H-WDYMV[dM]-NH2; N-terminus assumed) |  | 25.8 ± 6.56 nmol/10^6 cells | 37.3 ± 5.66 nmol/10^6 cells |  |
|  |  | CSCC[C@H](NC(=O)[C@H](Cc1ccc(O)cc1)NC(=O)[C@H](CCC(=O)O)NC(=O)[C@@H](N)Cc1c[nH]c2ccccc12)C(=O)N[C@H](C(=O)N[C@H](CCSC)C(N)=O)C(C)C [WEYMVm-NH2, Trp-Glu-Tyr-Met-Val-D-Met-NH2] (H-WEYMV[dM]-NH2; N-terminus assumed) | stimulated superoxide generation | 52.9 ± 12.78 nmol/10^6 cells | 35.3 ± 2.88 nmol/10^6 cells |  |
|  |  | CSCC[C@H](NC(=O)[C@H](Cc1ccc(O)cc1)NC(=O)[C@H](Cc1c[nH]cn1)NC(=O)[C@@H](N)Cc1c[nH]c2ccccc12)C(=O)N[C@H](C(=O)N[C@H](CCSC)C(N)=O)C(C)C [WHYMVm-NH2, Trp-His-Tyr-Met-Val-D-Met-NH2] (H-WHYMV[dM]-NH2; N-terminus assumed) |  | 20.7 ± 7.85 nmol/10^6 cells | 20.7 ± 7.85 nmol/10^6 cells | more improved affinity for the FPR against the peptide WKYMVm |
| 1330 ± 207 nM |  | CSCC[C@H](NC(=O)[C@H](CC(=O)O)NC(=O)[C@H](CCCCN)NC(=O)[C@@H](N)Cc1c[nH]c2ccccc12)C(=O)N[C@H](C(=O)N[C@H](CCSC)C(N)=O)C(C)C [WKDMVm-NH2, Trp-Lys-Asp-Met-Val-D-Met-NH2] (H-WKDMV[dM]-NH2; N-terminus assumed) |  | 16.3 ± 1.67 nmol/10^6 cells | 37.3 ± 2.78 nmol/10^6 cells |  |
| 1330 ± 88.8 nM |  | CSCC[C@H](NC(=O)[C@H](CCC(=O)O)NC(=O)[C@H](CCCCN)NC(=O)[C@@H](N)Cc1c[nH]c2ccccc12)C(=O)N[C@H](C(=O)N[C@H](CCSC)C(N)=O)C(C)C [WKEMVm-NH2, Trp-Lys-Glu-Met-Val-D-Met-NH2] (H-WKEMV[dM]-NH2; N-terminus assumed) |  | 4.1 ± 0.21 nmol/10^6 cells | 39.2 ± 4.71 nmol/10^6 cells |  |
|  |  | CSCC[C@H](NC(=O)[C@H](Cc1c[nH]cn1)NC(=O)[C@H](CCCCN)NC(=O)[C@@H](N)Cc1c[nH]c2ccccc12)C(=O)N[C@H](C(=O)N[C@H](CCSC)C(N)=O)C(C)C [WKHMVm-NH2, Trp-Lys-His-Met-Val-D-Met-NH2] (H-WKHMV[dM]-NH2; N-terminus assumed) |  | 29.5 ± 7.71 nmol/10^6 cells | 39.3 ± 4.10 nmol/10^6 cells |  |
|  |  | CSCC[C@H](NC(=O)[C@@H](N)Cc1ccc(O)cc1)C(=O)N[C@H](C(=O)N[C@H](CCSC)C(N)=O)C(C)C [YMVm-NH2, Tyr-Met-Val-D-Met-NH2] (H-YMV[dM]-NH2; N-terminus assumed) |  | 30.2 ± 2.74 nmol/10^6 cells | 41.8 ± 3.46 nmol/10^6 cells |  |
|  | inactive | WKYMV-NH2 [WKYMV-NH2, Trp-Lys-Tyr-Met-Val-NH2] |  | 9.2 ± 0.55 nmol/10^6 cells | 25.6 ± 2.20 nmol/10^6 cells |  |
|  | inactive | WKYMVG-NH2 [WKYMVG-NH2, Trp-Lys-Tyr-Met-Val-Gly-NH2] |  | 4.4 ± 0.54 nmol/10^6 cells | 27.3 ± 1.40 nmol/10^6 cells |  |
